Test results from patent US12152038B2, “Vasopressin receptor antagonists and products and methods related thereto” (Neumora Therapeutics, Inc., priority 2017, dated 2024).

Biological target: T1, human Arginine Vasopressin Receptor 1a (AVPR1a) (Homo sapiens, UniProt P37288)
T1 construct: expressed in transfected cells; host or cells: CHO (CHO-AVPR1a, kept under G418 selection)
Assay: Vasopressin V1a receptor antagonist assay (FLIPR calcium, CHO-AVPR1a cells)
Type: cell-based
Method: The purpose of this assay was to determine the inhibitory effect of synthesized compounds on the Vasopressin V1a receptor. The assay was performed in Chinese Hamster Ovary (CHO) cells expressing the human Arginine Vasopressin Receptor 1a (AVPR1a). Arginine Vasopressin (AVP) evokes an increase in intracellular calcium in CHO-AVPR1a cells which is measured in a fluorescence assay on the FLIPR^TETRA using calcium sensitive dyes. Test compounds were assessed for their ability to affect the magnitude of the response to AVP, with antagonists showing a concentration-dependent reduction in the AVP-mediated fluorescence. Compounds were tested in duplicate in a 10-point, 1:3 dilution series starting at a nominal concentration of 3 μM in the assay.
CHO-AVPR1a cells were maintained in routine culture in T175 Flasks at 37° C., 5% CO2. The growth medium consists of Ham's F12 media supplemented with 10% v/v fetal bovine serum, 1× non-essential amino acids, and 0.4 mg/ml Geneticin G418.
On day one, cells were harvested from T175 flasks when they are 80-90% confluent by first washing the cell monolayer with PBS and then dissociated using trypsin 0.05%/EDTA (3 mL for a T175 Flask). The flasks were incubated at room temperature until the cells detached. To the cell suspension, 10 ml of growth media was added and the cell density determined using the Vi-Cell automated cell counter. The cells were spun at 1000 rpm for 3 minutes, then the supernatant was carefully removed and discarded. The cell pellet was re-suspended at 6.0e^5 cells/ml in growth media. 25 μL of cells in growth media was dispensed into each well (15,000 cells per well) of a poly-D-lysine coated black, clear bottomed, 384-well plate. The plates were incubated at 37° C., 5% CO2 overnight.
At the start of each assay day, the potency of AVP was assessed and an EC80 concentration determined for subsequent compound profiling. Assays were performed using a two-step addition protocol on the FLIPR^TETRA; first addition of 5 μl of control or test compound at 10× final in assay buffer with 15 min incubation at 37° C., 5% CO2 followed by 10 μl of AVP at 6× final concentration in assay buffer. Changes in fluorescence were monitored for 3 min after both additions on the FLIPR^TETRA using 470-495 nm excitation and 515-575 nm emission wavelengths. The assay buffer consisted of HBSS (+Ca/+Mg) supplemented with 20 mM HEPES, and for the preparation of the AVP agonist only, 0.1% w/v bovine serum albumin. The assay was initiated by the removal of growth media from the cells and replacement with 45 μl of Calcium-6 dye (Molecular Devices) prepared at 1× in assay buffer. Cells were loaded with dye for 60-90 min at 37° C., 5% CO2 before initiation of the FLIPR^TETRA protocol. […] For compound profiling, test compounds were first serially diluted in DMSO (10-point curve, 1:3 dilutions) then diluted 33.3-fold in assay buffer prior to addition to the dye loaded cells on the FLIPR^TETRA. At the end of the incubation period, 10 μl of AVP in assay buffer containing 0.1% BSA was added at the previously determined EC80 concentration.
In-plate controls for the assay included balovaptan and PF-184563 concentration-response curves as reference V1a antagonists, and an AVP concentration-response curve to confirm the reproducibility of the EC80 used for the compound challenge.

T1 sequence (P37288 whole entry): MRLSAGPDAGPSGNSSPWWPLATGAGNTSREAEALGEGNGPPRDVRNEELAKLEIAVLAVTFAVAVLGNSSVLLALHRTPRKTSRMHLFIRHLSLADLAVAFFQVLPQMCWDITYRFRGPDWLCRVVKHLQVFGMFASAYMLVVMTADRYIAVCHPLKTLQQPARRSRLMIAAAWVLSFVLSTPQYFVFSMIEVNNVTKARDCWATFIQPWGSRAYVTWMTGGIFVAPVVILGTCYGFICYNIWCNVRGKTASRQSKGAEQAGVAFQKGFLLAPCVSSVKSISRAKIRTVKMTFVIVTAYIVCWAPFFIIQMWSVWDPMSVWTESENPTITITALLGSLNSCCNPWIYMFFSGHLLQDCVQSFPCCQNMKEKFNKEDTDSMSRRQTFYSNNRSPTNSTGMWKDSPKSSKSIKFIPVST

| IC50 [µM] | SMILES |
| --- | --- |
| 0.5 to 1 | CCC1COc2cc(Cl)ccc2N1C(=O)N1CC2(C1)CN(c1ccc(F)cn1)C2 (single isomer, unassigned) [1-55-A] |
| ≥ 1 | CC1COc2cc(Cl)ccc2N1C(=O)N1CC2(C1)CN(c1cnccn1)C2 (single isomer, unassigned) [1-58-A] |
| ≥ 1 | COc1ccc2c(c1)OCC(C)N2C(=O)N1CC2(C1)CN(c1ccc(F)cn1)C2 (single isomer, unassigned) [1-59-A] |
| 0.5 to 1 | CC1COc2cc(Cl)ccc2N1C(=O)N1CC2(C1)CN(c1ccccn1)C2 (single isomer, unassigned) [1-60-A] |
| ≥ 1 | CC1COc2cc(F)ccc2N1C(=O)N1CC2(C1)CN(c1cccnn1)C2 (single isomer, unassigned) [1-62-A] |
| < 0.1 | CC1COc2cc(F)ccc2N1C(=O)N1CC2(C1)CN(c1cccnn1)C2 (single isomer, unassigned) [1-62-B] |
| ≥ 1 | CC1COc2cc(F)ccc2N1C(=O)N1CC2(C1)CN(c1cnccn1)C2 (single isomer, unassigned) [1-65-A] |
| ≥ 1 | CC1COc2cc(F)ccc2N1C(=O)N1CC2(C1)CN(c1ccccn1)C2 (single isomer, unassigned) [1-66-A] |
| ≥ 1 | CC1COc2cc(F)ccc2N1C(=O)N1CC2(C1)CN(c1ncccc1F)C2 (single isomer, unassigned) [1-67-B] |
| 0.1 to 0.5 | CC1COc2cc(Cl)ccc2N1C(=O)N1CC2(C1)CN(c1ncccn1)C2 (single isomer, unassigned) [1-83-A] |
| 0.1 to 0.5 | CC1COc2cc(F)ccc2N1C(=O)N1CC2(C1)CN(c1noc3ccccc13)C2 (single isomer, unassigned) [4-3-A] |
| < 0.1 | CC1CN(C(=O)N2CC3(C2)CN(c2ccc(F)cn2)C3)c2ccc(Cl)cc2O1 (single isomer, unassigned) [9-3-B] |
| 0.1 to 0.5 | CC1CN(C(=O)N2CC3(C2)CN(c2ccc(F)cn2)C3)c2ccc(F)cc2O1 (single isomer, unassigned) [9-4-A] |
| < 0.1 | O=C(N1CC2(C1)CN(c1ncccc1F)C2)N1CCC(O)c2cc(Cl)ccc21 (single isomer, unassigned) [13-4-A] |
| < 0.1 | O=C(N1CC2(C1)CN(c1ccc(F)cn1)C2)N1CCC(O)c2c1ccc(Cl)c2F (single isomer, unassigned) [13-5-A] |
| < 0.1 | O=C(N1CC2(C1)CN(c1ccc(F)cn1)C2)N1CCC(O)c2c1ccc(Cl)c2F (single isomer, unassigned) [13-5-B] |
| < 0.1 | CC1COc2cc(Cl)ccc2N1C(=O)N1CC2(C1)CN(c1ncc(F)cn1)C2 (single isomer, unassigned) [18-2-A] |
| ≥ 1 | CC1COc2cc(Cl)ccc2N1C(=O)N1CC2(C1)CN(c1noc3cccnc13)C2 (single isomer, unassigned) [18-3-A] |
| ≥ 1 | CC1COc2cc(F)ccc2N1C(=O)N1CC2(C1)CN(c1ncc(F)cn1)C2 (single isomer, unassigned) [18-4-A] |

| IC50 [µM] | SMILES |
| --- | --- |
| ≥ 1 | CCc1ccnc(N2CC3(CN(C(=O)N4c5ccc(Cl)cc5OCC4C)C3)C2)n1 (single isomer, unassigned) [18-5-A] |
| < 0.1 | CCc1ccnc(N2CC3(CN(C(=O)N4c5ccc(Cl)cc5OCC4C)C3)C2)n1 (single isomer, unassigned) [18-5-B] |
| ≥ 1 | CC1COc2cc(F)c(F)cc2N1C(=O)N1CC2(C1)CN(c1ncccn1)C2 (single isomer, unassigned) [19-1-A] |
| 0.1 to 0.5 | CC1COc2cc(Cl)c(F)cc2N1C(=O)N1CC2(C1)CN(c1ncccn1)C2 (single isomer, unassigned) [19-2-A] |
| 0.1 to 0.5 | CC1COc2cc(F)c(F)cc2N1C(=O)N1CC2(C1)CN(c1ccc(F)cn1)C2 (single isomer, unassigned) [19-5-A] |
| ≥ 1 | CC1COc2cc(Cl)ccc2N1C(=O)N1CC2(C1)CN(c1cccnc1)C2 (single isomer, unassigned) [20-1-A] |
| ≥ 1 | CC1COc2cc(F)ccc2N1C(=O)N1CC2(C1)CN(c1cc(C#N)ccn1)C2 (single isomer, unassigned) [20-3-A] |
| ≥ 1 | Cc1ccnc(N2CC3(CN(C(=O)N4c5ccc(F)cc5OCC4C)C3)C2)c1 (single isomer, unassigned) [20-4-A] |
| < 0.1 | Cc1cnc(N2CC3(CN(C(=O)N4c5ccc(Cl)cc5OCC4C)C3)C2)cn1 (single isomer, unassigned) [20-5-A] |
| 0.1 to 0.5 | COc1ccnc(N2CC3(CN(C(=O)N4c5ccc(Cl)cc5OCC4C)C3)C2)c1 (single isomer, unassigned) [20-8-A] |
| ≥ 1 | COc1ccnc(N2CC3(CN(C(=O)N4c5ccc(Cl)cc5OCC4C)C3)C2)n1 (single isomer, unassigned) [20-9-A] |
| ≥ 1 | Cc1nccnc1N1CC2(CN(C(=O)N3c4ccc(Cl)cc4OCC3C)C2)C1 (single isomer, unassigned) [20-10-B] |
| 0.5 to 1 | Cc1ccnc(N2CC3(CN(C(=O)N4c5ccc(Cl)cc5OCC4C)C3)C2)c1 (single isomer, unassigned) [20-11-A] |
| < 0.1 | Cc1ccnc(N2CC3(CN(C(=O)N4c5ccc(Cl)cc5OCC4C)C3)C2)c1 (single isomer, unassigned) [20-11-B] |
| ≥ 1 | Cc1ccnc(N2CC3(CN(C(=O)N4c5ccc(Cl)cc5OCC4C)C3)C2)n1 (single isomer, unassigned) [20-12-A] |
| ≥ 1 | CC1COc2cc(Cl)ccc2N1C(=O)N1CC2(C1)CN(c1cc(=O)n(C)cn1)C2 (single isomer, unassigned) [20-14-A] |
| 0.1 to 0.5 | CC1COc2cc(Cl)ccc2N1C(=O)N1CC2(C1)CN(c1nn(C)c3ncccc13)C2 (single isomer, unassigned) [20-15-A] |
| ≥ 1 | CC1COc2cc(Cl)ccc2N1C(=O)N1CC2(C1)CN(c1nccc(C#N)n1)C2 (single isomer, unassigned) [20-16-A] |
| < 0.1 | CC1COc2cc(Cl)ccc2N1C(=O)N1CC2(C1)CN(c1nccc(C#N)n1)C2 (single isomer, unassigned) [20-16-B] |

| IC50 [µM] | SMILES |
| --- | --- |
| < 0.1 | COc1cccc(N2CC3(CN(C(=O)N4CCOc5cc(Cl)ccc54)C3)C2)n1 [1-2] |
| < 0.1 | COc1cccnc1N1CC2(CN(C(=O)N3CCOc4cc(Cl)ccc43)C2)C1 [1-6] |
| 0.1 to 0.5 | O=C(N1CC2(C1)CN(c1cncc(F)c1)C2)N1CCOc2cc(Cl)ccc21 [1-7] |
| 0.1 to 0.5 | COc1ncccc1N1CC2(CN(C(=O)N3CCOc4cc(Cl)ccc43)C2)C1 [1-8] |
| 0.5 to 1 | Cc1ncccc1N1CC2(CN(C(=O)N3CCOc4cc(Cl)ccc43)C2)C1 [1-9] |
| 0.1 to 0.5 | Cn1ccc(N2CC3(CN(C(=O)N4CCOc5cc(Cl)ccc54)C3)C2)n1 [1-10] |
| ≥ 1 | Cn1cc(N2CC3(CN(C(=O)N4CCOc5cc(Cl)ccc54)C3)C2)cn1 [1-11] |
| ≥ 1 | O=C(N1CC2(C1)CN(c1ccc(OC(F)F)cn1)C2)N1CCOc2cc(Cl)ccc21 [1-12] |
| < 0.1 | Cc1ccc(N2CC3(CN(C(=O)N4CCOc5cc(Cl)ccc54)C3)C2)nc1 [1-13] |
| 0.1 to 0.5 | N#Cc1ccc(N2CC3(CN(C(=O)N4CCOc5cc(Cl)ccc54)C3)C2)nc1 [1-16] |
| 0.1 to 0.5 | O=C(N1CC2(C1)CN(c1cncnc1)C2)N1CCOc2cc(Cl)ccc21 [1-17] |
| < 0.1 | O=C(N1CC2(C1)CN(c1cnc(Br)cn1)C2)N1CCOc2cc(Cl)ccc21 [1-19] |
| < 0.1 | Cc1nccnc1N1CC2(CN(C(=O)N3CCOc4cc(Cl)ccc43)C2)C1 [1-21] |
| < 0.1 | COc1cnc(N2CC3(CN(C(=O)N4CCOc5cc(Cl)ccc54)C3)C2)cn1 [1-23] |
| 0.5 to 1 | N#Cc1cnc(N2CC3(CN(C(=O)N4CCOc5cc(Cl)ccc54)C3)C2)cn1 [1-24] |
| ≥ 1 | O=C(N1CC2(C1)CN(c1ccnnc1)C2)N1CCOc2cc(Cl)ccc21 [1-25] |
| 0.1 to 0.5 | Cc1ccc(N2CC3(CN(C(=O)N4CCOc5cc(Cl)ccc54)C3)C2)nn1 [1-26] |
| 0.1 to 0.5 | COc1ccc(N2CC3(CN(C(=O)N4CCOc5cc(Cl)ccc54)C3)C2)nn1 [1-27] |
| ≥ 1 | CN1Cc2cnc(N3CC4(CN(C(=O)N5CCOc6cc(Cl)ccc65)C4)C3)nc2C1 [1-28] |
